In general, EC50 refers to the concentration that produces a half-maximal response.

Activity calls are given as the source filed them. Bounds are passed on as bounds.

For twelve compounds, EC50 and IC50 results are on record in ChEMBL document CHEMBL1201862, “PubChem BioAssay data set” (2004).

Assay [1] addresses T1, Estrogen receptor (Homo sapiens, UniProt P03372).
T1 sequence (P03372 whole entry): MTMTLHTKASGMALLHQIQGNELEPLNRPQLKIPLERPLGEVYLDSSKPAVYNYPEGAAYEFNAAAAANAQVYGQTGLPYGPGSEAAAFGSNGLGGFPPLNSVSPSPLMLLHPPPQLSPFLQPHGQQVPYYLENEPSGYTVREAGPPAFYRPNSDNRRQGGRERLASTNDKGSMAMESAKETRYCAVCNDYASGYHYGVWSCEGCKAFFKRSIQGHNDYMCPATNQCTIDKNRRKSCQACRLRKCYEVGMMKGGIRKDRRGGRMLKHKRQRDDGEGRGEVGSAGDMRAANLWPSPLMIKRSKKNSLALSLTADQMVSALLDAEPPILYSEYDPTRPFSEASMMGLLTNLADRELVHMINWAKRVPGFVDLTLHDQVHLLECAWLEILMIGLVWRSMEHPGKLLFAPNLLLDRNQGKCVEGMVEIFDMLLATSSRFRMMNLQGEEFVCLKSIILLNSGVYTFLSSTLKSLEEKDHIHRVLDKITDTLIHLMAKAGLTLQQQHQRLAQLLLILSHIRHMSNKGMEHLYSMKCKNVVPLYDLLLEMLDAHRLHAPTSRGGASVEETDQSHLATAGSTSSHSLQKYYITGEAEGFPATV
Briefly: potentiators of ERα–SRC-1 coactivator binding, dose response, biochemical, TR-FRET, ERα LBD (AID 737).

The target of assay [2] is Large T antigen (Simian virus 40, UniProt P03070). It counts as functional, Betapolyomavirus macacae.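 Further: Confirmatory-stage PubChem screen for compounds that inhibit SV40 T antigen.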
In assay [3] the target is Mothers against decapentaplegic homolog 3 (Homo sapiens, UniProt P84022). In words: SMAD3 transcription factor inhibitors, dose response (AID 715). Type of assay: functional.
Chain of Mothers against decapentaplegic homolog 3 (P84022 whole entry): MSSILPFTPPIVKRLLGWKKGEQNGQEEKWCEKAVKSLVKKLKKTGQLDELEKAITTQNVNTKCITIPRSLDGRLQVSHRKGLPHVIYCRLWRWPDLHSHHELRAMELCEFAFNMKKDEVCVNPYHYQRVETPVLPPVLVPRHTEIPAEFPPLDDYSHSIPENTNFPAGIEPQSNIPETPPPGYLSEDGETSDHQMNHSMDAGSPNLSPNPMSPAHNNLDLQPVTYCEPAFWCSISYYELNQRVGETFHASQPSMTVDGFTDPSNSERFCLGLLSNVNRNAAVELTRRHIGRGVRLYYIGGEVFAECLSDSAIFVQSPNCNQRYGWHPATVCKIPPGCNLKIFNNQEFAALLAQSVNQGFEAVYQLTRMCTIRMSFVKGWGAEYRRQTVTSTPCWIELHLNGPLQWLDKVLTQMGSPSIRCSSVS
Assay [4] deals with T1, Estrogen receptor.
The target in assay [5] is Protein-tyrosine kinase 2-beta (Homo sapiens, UniProt Q14289).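 Further: potency of inhibitors of PYK2 kinase phosphorylation of poly-GT substrate.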
Chain of Protein-tyrosine kinase 2-beta (Q14289 whole entry): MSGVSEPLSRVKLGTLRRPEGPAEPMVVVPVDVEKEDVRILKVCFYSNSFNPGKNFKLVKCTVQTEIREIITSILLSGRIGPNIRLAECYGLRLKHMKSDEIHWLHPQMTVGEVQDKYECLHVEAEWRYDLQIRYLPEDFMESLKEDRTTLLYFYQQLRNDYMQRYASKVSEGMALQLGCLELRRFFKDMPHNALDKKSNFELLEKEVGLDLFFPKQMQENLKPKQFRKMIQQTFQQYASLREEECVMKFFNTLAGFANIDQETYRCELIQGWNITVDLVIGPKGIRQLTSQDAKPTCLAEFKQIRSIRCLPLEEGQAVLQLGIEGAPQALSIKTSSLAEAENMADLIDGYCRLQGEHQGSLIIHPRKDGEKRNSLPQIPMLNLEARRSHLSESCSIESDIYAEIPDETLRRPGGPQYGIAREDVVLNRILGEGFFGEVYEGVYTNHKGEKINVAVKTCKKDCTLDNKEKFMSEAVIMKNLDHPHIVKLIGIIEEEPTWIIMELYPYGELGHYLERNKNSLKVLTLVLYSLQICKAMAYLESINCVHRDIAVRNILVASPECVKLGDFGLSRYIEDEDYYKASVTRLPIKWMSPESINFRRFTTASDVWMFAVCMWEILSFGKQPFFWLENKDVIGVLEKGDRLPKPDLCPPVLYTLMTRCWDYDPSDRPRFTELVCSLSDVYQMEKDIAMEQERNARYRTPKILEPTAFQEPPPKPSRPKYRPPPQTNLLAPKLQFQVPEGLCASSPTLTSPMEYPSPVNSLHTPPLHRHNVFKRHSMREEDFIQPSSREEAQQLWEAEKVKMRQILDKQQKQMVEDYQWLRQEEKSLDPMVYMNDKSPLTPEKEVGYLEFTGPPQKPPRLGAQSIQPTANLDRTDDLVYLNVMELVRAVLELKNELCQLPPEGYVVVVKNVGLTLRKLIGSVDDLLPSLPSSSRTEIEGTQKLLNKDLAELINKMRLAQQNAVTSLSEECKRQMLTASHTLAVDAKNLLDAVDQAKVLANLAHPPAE
The nature of assay [6]: Counterscreen for IDE inhibitors: Luminescence-based cell-based high throughput dose response assay to identify compounds that are cytotoxic to HEK cells. [Related pubchem assays: 434962 (Primary screen (IDE inhibitors in singlicate)), 449730 (Counterscreen (Cytotoxicity in triplicate)), 435028 (Confirmation (IDE inhibitors in triplicate)) …. Type of assay: functional. Conditions: HEK293.

Assay [7] addresses T2, Insulin-degrading enzyme (Homo sapiens, UniProt P14735).
T2 sequence (P14735 whole entry): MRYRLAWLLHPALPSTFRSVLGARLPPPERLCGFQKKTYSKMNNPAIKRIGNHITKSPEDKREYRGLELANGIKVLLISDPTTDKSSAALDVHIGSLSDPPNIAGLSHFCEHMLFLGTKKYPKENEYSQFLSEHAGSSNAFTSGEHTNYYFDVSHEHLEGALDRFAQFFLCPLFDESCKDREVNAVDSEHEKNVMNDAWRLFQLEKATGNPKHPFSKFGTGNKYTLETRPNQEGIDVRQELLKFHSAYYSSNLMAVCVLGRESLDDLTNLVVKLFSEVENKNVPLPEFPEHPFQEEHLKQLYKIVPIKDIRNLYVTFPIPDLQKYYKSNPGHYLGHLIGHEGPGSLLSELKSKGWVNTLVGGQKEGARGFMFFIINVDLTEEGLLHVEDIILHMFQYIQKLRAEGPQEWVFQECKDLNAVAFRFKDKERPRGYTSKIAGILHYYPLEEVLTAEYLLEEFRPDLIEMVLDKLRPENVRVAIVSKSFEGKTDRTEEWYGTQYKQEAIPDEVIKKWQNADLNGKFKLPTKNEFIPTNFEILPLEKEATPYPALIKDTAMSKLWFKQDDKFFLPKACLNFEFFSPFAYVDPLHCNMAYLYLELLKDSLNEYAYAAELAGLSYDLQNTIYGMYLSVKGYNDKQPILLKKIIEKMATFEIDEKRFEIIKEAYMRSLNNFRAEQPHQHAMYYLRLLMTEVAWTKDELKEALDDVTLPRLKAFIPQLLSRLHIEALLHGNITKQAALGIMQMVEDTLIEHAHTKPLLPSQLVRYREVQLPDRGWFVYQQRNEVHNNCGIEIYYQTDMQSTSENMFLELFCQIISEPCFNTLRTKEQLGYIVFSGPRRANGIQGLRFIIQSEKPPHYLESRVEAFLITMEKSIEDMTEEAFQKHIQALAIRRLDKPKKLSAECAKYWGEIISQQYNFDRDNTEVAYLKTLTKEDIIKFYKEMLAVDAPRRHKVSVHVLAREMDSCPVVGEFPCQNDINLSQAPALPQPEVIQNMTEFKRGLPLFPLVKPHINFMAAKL
Briefly: Dose Response: Fluorescence polarization-based cell-based high throughput dose response assay for inhibitors of insulin-degrading enzyme (IDE). [Related pubchem assays: 434962 (Primary screen (IDE inhibitors in singlicate)), 449730 (Counterscreen (Cytotoxicity in triplicate)), 435028 (Confirmation (IDE inhibitors in triplicate)), 434984 (Summary …. It counts as functional. In general terms: In fluorescence polarisation assays a small probe gives low polarisation when free and higher when bound to something large.

Assay [8] deals with T3, Neuropeptide Y receptor type 2 (Homo sapiens, UniProt P49146). It counts as functional, cell-based.
T3 sequence (P49146 whole entry): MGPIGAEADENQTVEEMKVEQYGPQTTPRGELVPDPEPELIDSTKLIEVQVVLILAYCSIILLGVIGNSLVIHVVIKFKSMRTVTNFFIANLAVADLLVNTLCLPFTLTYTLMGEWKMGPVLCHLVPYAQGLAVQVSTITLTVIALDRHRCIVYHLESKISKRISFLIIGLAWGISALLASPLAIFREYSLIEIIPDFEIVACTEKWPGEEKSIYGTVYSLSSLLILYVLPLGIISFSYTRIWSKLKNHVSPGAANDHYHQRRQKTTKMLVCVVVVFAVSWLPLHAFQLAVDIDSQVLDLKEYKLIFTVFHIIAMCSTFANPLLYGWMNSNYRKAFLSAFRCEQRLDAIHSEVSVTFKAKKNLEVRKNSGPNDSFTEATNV
Assay [9] addresses Luciferin 4-monooxygenase (Photinus pyralis, UniProt P08659). Briefly: firefly luciferase enzyme inhibitors, dose response, biochemical, luminescence (AID 1891).
Assay [10] addresses T4, Neuropeptide Y receptor type 1 (Homo sapiens, UniProt P25929). Type of assay: functional.
Assay [11] is described as follows: Luminescence Cell-Based Dose Confirmation HTS to Identify Inhibitors of Platelet Dense Granule Release. [Related pubchem assays: 1663 (Primary HTS), 1678 (Summary of Project)]. Type of assay: functional.
In assay [12] the target is Aspartyl aminopeptidase (Plasmodium falciparum 3D7, UniProt Q8I2J3).
Chain of Aspartyl aminopeptidase (Q8I2J3 whole entry): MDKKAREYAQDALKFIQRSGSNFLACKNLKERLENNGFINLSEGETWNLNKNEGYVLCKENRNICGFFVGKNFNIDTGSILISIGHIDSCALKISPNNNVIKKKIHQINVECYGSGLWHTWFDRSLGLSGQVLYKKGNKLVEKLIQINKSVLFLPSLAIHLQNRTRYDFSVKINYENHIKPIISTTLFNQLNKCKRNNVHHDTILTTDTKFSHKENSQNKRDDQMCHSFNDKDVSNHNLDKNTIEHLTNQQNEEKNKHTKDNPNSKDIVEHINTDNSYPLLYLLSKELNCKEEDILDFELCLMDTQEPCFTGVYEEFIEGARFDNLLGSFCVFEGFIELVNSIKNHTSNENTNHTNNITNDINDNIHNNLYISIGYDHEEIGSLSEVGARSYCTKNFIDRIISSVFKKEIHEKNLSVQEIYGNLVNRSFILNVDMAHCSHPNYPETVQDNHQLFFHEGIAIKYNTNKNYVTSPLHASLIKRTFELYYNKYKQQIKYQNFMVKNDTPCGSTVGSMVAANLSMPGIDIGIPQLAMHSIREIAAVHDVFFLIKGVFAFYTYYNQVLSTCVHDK
For assay [13], the target named is Procathepsin L (Homo sapiens, UniProt P07711).
The target in assay [14] is T5, Leucine aminopeptidase (Plasmodium falciparum 3D7, UniProt Q8IL11).
T5 sequence (Q8IL11 whole entry): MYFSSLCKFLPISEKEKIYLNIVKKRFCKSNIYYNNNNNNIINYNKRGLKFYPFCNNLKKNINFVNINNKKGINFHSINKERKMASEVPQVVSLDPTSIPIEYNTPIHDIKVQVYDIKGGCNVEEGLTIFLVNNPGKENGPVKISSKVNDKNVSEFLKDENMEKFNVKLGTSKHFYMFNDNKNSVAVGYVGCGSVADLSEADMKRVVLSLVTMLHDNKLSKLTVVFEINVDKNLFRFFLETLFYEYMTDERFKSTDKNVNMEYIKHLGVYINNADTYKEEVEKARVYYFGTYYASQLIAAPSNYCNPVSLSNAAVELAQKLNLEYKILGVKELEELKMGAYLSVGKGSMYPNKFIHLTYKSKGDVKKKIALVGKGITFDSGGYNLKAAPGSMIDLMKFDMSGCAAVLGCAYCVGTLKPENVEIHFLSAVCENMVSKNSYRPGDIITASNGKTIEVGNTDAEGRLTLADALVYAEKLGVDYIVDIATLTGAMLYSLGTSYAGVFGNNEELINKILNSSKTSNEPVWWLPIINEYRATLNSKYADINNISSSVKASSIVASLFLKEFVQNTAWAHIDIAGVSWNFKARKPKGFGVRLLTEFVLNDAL
In words: P. falciparum M17LAP inhibitors, primary screen, biochemical, fluorogenic H-Leu-NHMec substrate, 1536-well (AID 1619). It counts as functional.

In assay [15] the target is T6, Polyadenylate-binding protein 1 (Homo sapiens, UniProt P11940). Briefly: PABP1 MLLE–PAM2 interaction inhibitors, dose response, miRNA deadenylation inhibitor project, biochemical, fluorescence polarization, Cy5-PAM2 peptide, secondary (AID 602260). It counts as functional. Conditions: read-out: IC50_Mean.
T6 sequence (P11940 whole entry): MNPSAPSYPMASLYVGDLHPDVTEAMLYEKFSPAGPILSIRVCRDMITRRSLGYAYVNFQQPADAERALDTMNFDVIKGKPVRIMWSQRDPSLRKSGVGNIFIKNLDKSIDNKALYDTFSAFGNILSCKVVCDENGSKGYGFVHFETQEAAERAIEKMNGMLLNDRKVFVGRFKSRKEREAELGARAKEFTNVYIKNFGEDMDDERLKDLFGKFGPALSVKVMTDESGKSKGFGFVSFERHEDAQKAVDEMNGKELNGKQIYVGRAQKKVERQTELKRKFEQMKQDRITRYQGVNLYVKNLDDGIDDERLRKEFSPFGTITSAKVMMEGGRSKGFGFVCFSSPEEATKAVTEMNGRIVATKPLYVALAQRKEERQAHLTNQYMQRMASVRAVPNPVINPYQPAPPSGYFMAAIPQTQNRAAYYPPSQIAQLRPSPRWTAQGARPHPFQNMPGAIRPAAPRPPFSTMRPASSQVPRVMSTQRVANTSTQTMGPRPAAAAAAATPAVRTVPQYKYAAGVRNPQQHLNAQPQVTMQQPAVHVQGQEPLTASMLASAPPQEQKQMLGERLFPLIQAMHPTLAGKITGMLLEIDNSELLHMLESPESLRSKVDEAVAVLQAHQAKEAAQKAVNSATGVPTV
In assay [16] the target is Sphingosine 1-phosphate receptor 4 (Homo sapiens, UniProt O95977). In words: Fluorescence dose response cell-based high throughput screening assay for antagonists of the Sphingosine 1-Phosphate Receptor 4 (S1P4). [Related pubchem assays: 1524 (Confirmation in triplicates.), 1510 (Primary screen.)]. Type of assay: functional.
The nature of assay [17]: cytotoxicity toward NIH3T3 fibroblasts, dose response, counter-screen, cell-based, ATP luminescence, mouse fibroblasts (AID 2010).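 Further: cells exposed to compound for about 90 hours before reading.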 It counts as functional. On the technique in general: Counterscreens check selectivity or assay interference.
Assay [18] can be described thus: inhibitors of intracellular T. cruzi replication, confirmation, NIH3T3 host cells, beta-gal luminescence (AID 2044).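 Further: intracellular parasites grown in NIH/3T3 mouse fibroblasts as host cells; luminescent beta-galactosidase reporter signal from transgenic T. cruzi replicating inside host cells; inhibitors lower the luminescence signal.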 It counts as functional, cell-based.
Assay [19] deals with Sphingosine 1-phosphate receptor 1 (Homo sapiens, UniProt P21453). Type of assay: functional.
The target of assay [20] is T6, Polyadenylate-binding protein 1. Briefly: PABP1 MLLE–PAM2 binding inhibitor potency, dose response, biochemical, fluorescence polarization, FITC-PAM2 peptide (AID 602259). Conditions: read-out: IC50_Mean. It counts as functional.
The nature of assay [21]: cytotoxicity in HPDE-C7 cells, cell-based, fluorescence, HTS (AID 430). Type of assay: functional. Conditions: Homo sapiens.
Assay [22] is described as follows: cytotoxicity in KRAS-transformed pancreatic duct cells, primary screen, cell-based, fluorescence, HTS (AID 431).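 Further: cell line used: HPDE-C7K.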 Type of assay: functional. To be noted: Homo sapiens.
For assay [23], the target named is Estrogen receptor beta (Homo sapiens, UniProt Q92731). In words: ERβ–SRC-3 coactivator interaction inhibitors, confirmation, orthogonal assay, biochemical, ELISA, streptavidin-HRP readout (AID 1060). In general terms: An ELISA detects its analyte on a solid surface through an enzyme-linked reagent.
Chain of Estrogen receptor beta (Q92731 whole entry): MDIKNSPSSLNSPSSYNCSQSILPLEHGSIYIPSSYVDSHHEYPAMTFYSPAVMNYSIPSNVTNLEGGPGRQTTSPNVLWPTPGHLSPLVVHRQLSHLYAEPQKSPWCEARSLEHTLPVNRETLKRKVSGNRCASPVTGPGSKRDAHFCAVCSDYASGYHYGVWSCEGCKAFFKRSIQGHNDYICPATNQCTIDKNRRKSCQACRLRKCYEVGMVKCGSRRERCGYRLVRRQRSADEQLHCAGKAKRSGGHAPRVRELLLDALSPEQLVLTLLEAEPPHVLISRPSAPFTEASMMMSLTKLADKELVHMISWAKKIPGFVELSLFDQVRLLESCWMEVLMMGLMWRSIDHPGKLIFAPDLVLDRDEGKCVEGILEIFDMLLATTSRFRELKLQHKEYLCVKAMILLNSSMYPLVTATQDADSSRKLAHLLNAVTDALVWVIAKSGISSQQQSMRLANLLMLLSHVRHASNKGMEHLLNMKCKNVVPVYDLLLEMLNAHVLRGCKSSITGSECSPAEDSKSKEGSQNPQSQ
The target in assay [24] is Sphingosine 1-phosphate receptor 2 (Homo sapiens, UniProt O95136). In words: Dose Response Cell Based Assay for Agonists of the S1P2 Receptor of Purchased Analogues. [Related pubchem assays: 729, 843, 854, 736 ]. It counts as functional.
Chain of Sphingosine 1-phosphate receptor 2 (O95136 whole entry): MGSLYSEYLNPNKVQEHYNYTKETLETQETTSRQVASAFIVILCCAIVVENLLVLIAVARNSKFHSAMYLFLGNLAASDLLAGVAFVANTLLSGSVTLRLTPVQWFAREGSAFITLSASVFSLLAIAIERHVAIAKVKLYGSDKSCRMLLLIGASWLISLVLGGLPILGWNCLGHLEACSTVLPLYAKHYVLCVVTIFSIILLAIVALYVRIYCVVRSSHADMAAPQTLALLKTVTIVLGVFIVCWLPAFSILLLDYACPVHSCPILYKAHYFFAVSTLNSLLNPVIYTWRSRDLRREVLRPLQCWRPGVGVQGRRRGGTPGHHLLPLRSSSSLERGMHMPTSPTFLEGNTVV
Assay [25] concerns HEK293. Briefly: Fluorescence-based counterscreen for potentiators or agonists of NPY-Y1: cell-based high-throughput dose response assay for inhibitors of cyclic nucleotide gated ion channel (CNGC) activity. In this assay, the parental HEK293 cell line transfected with a cyclic-nucleotide gated ion channel (CNGC)-based cAMP sensor is used to measure inhibition of isoproterenol-induced CNGC …. It counts as functional. Conditions: Homo sapiens.

The target in assay [26] is T4, Neuropeptide Y receptor type 1. Briefly: Fluorescence-based dose response cell-based high-throughput screening assay for agonists of NPY-Y1. [Related pubchem assays: 1697 (Screening assay (NPY-Y1 agonists).), 1359 (Screening assay (NPY-Y2 potentiators or agonists).), 1304 (Screening assay (NPY-Y1 potentiators or agonists).), 1704 (Screening assay (CNGC inhibitors).), 1791 (Summary AID.)]. Type of assay: functional.

Assay [27] has as its target T3, Neuropeptide Y receptor type 2. In words: Fluorescence-based counterscreen for agonists of NPY-Y1: cell-based high-throughput dose response assay for agonists of NPY-Y2. Type of assay: functional.
Assay [28] has as its target NADPH oxidase 1 (Homo sapiens, UniProt Q9Y5S8). Type of assay: functional, cell-based.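 Further: Cell-based assay with luminescence read-out, IC50 derived from inhibitor dose-response curves; intracellular ROS from endogenous NOX1 in intact HT29 colon cancer cells; potency of inhibitors that lower the ROS luminescence signal.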

T4 sequence (P25929 whole entry): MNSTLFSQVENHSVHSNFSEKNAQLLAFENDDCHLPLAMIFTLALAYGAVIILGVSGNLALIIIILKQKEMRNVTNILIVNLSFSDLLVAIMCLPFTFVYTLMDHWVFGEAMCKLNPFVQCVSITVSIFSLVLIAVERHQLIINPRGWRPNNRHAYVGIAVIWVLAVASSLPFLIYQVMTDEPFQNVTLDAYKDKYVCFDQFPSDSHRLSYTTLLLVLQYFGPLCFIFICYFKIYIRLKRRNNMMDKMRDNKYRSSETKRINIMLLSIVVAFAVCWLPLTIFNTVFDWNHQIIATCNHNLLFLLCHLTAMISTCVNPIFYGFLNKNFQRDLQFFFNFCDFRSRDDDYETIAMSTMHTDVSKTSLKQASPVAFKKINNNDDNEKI
Chain of Luciferin 4-monooxygenase (P08659 whole entry): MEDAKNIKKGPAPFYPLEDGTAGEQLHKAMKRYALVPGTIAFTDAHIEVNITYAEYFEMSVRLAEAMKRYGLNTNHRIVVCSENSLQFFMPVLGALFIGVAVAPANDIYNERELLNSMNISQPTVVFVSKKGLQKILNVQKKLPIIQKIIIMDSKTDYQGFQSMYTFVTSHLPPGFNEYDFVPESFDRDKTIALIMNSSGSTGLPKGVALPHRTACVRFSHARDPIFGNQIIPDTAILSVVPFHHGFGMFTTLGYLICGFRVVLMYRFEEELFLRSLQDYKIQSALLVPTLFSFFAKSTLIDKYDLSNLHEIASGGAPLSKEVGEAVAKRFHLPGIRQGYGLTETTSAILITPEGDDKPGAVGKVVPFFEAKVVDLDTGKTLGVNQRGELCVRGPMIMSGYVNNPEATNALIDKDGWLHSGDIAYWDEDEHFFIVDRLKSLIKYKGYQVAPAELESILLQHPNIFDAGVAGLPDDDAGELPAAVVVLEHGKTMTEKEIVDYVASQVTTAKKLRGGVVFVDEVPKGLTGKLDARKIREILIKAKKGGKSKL

With `CCOc1ccccc1N1CSC2=C(C#N)C(c3c(OC)ccc4ccccc34)CC(=O)N2C1` (stereo not drawn), the EC50 in assay [1] is 16.1 µM (active). Also, the IC50 in [2] is 78.8 µM (active).

Consider `Oc1ccccc1-c1nc(N2CCCC2)c2ccccc2n1`, for which the IC50 in assay [3] is 14.6 µM (active).

Take `O=c1oc2ccccc2n1CCn1c2ccccc2c2nc3ccccc3nc21`: the IC50 in assay [4] is 17.9 µM (active); in [5], 2.08 µM (active).

With `COc1cccc(NC(=O)COC(=O)/C=C/c2c(C)nn(-c3ccccc3)c2C)c1`, the IC50 in assay [6] is > 55.7 µM (not active); in assay [7], 8.29 µM (active).

With `O=C(Nc1ccccc1)OCc1cc(-c2ccccc2Cl)on1`, the IC50 in [8] is 14.7 µM (not active); in [10], 9 µM (active). Besides, the EC50 in assay [9] and in assay [11] was > 112 µM (not active) each time.

For the compound `O=C(CSc1nc[nH]n1)Nc1ccc([N+](=O)[O-])cc1Br`, the IC50 was 0.975 µM (active) in [12], > 59.6 µM (not active) in [13] and 19.9 µM (active) in [14].

Take `Cc1ccnc(N2C(=O)c3cccc4c([N+](=O)[O-])ccc(c34)C2=O)c1`: the IC50 in assay [15] is > 66 µM (inactive); in assay [16], 1.62 µM (active); in assay [19] it was 3.43 µM (active); in [20], 23.4 µM (inactive). The values for the concentration giving a half-maximal response (EC50) in assay [17] and in [18] were > 30 µM (not active) and 4.58 µM (active), respectively.

With `CCOP(=O)(c1ccccc1)c1nc(-c2ccccc2C)oc1N1CCCCC1` (stereo not drawn), the EC50 in assay [21] and in assay [22] was > 20 µM (not active) throughout.

Regarding `O=C(CCCn1c(=S)[nH]c2ccccc2c1=O)N1CCN(c2ccc(C(F)(F)F)cc2)CC1`, in assay [23], the IC50 is given as 33 µM (not active).

As for `CCC1(CC)NC(=O)N(CC(=O)OCC(=O)c2cc(C)n(Cc3ccccc3)c2C)C1=O`, in [24], the EC50 is > 30 µM (not active).

As for `CCC(C)C1C(C#N)=C(N)Oc2[nH]nc(-c3ccccc3)c21` (stereo not drawn), the IC50 in [25] was 25 µM (not active). For the same compound, the EC50 in assay [26] and in assay [27] was > 35.4 µM (not active) each time.

As to `COc1ccc(-c2nc(-c3ccccc3)c(-c3ccccc3)[nH]2)cc1`, the IC50 in [28] is recorded as > 17 µM (not active).
